The text below walks through data of patent US8530652B2, “Pyrrolopyrazoles, potent kinase inhibitors” (Agouron Pharmaceuticals, Inc., priority 2005, dated 2013).

A word on the pKi: it is −log10 of the Ki, conventionally taken in molar units. Broadly, the pEC50 is the EC50 on a negative log10 scale, so that one unit is a factor of ten. The low end stands for a high EC50, the high end for a low EC50.

pEC50, pKi: −log10 of the molar value. Where two headings read alike, the source gives them in different places. A value given as a limit tells only on which side of the number the result lay.

Assay [1] addresses PAK4 kinase domain (PAK4 KD) (Homo sapiens (Human), UniProt O96013). Briefly: PAK4 kinase domain enzymatic assay (coupled PK/LDH, NADH absorbance at 340 nm). Format: biochemical.
Assay [2] deals with PAK4 kinase activity in whole cells (TR-293-KDG, modified HEK 293 overexpressing GEF-H1b and PAK4 KD) (Homo sapiens (Human), UniProt O96013). Briefly: PAK4 cellular assay: sandwich ELISA of PAK4-dependent phosphorylation of GEF-H1b in TR-293-KDG cells. In kind it is cell-based. Conditions: doxycycline-induced, 3-hour exposure, phospho-GEF-H1b ELISA. An outline of the steps: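 HEK 293-derived TR-293-KDG cells overexpressing GEF-H1b, with PAK4 kinase domain induced overnight by doxycycline, then exposed to compound for 3 h. Lysates captured on anti-HA plates; phospho-GEF-H1b detected by phosphospecific antibody in sandwich ELISA. EC50 from four-parameter sigmoid fit.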
Sequence of PAK4 kinase activity in whole cells (TR-293-KDG, modified HEK 293 overexpressing GEF-H1b and PAK4 KD) (O96013 321-572): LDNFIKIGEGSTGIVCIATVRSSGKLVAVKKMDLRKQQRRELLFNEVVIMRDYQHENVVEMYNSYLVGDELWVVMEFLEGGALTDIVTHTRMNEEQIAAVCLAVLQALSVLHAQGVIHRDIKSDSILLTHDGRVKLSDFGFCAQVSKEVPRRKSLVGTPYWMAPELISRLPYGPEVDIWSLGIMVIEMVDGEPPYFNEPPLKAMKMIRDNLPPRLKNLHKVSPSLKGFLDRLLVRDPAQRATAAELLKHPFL

Setting [3] is: PAK4 kinase domain, 25 nM PAK4 KD, 0.04 mM ATP, pH 7.5.

Sequence of PAK4 kinase domain (PAK4 KD) (O96013 321-572): as above

Compound `CC1(C)c2[nH]nc(Nc3ccnc(C#N)n3)c2CN1C(=O)N[C@@H]1C[C@H]1c1ccccc1` (relative stereo) [Example 33, 3-[(2-cyanopyrimidin-4-yl)amino]-6,6-dimethyl-N-[trans-2-phenylcyclopropyl]-4,6-dihydropyrrolo[3,4-c]pyrazole-5(1H)-carboxamide] had a pKi in assay [1] (setting [3]) of 7.33. In addition, in assay [2], the pEC50 is 6.21.

Compound `Cc1nc(Nc2n[nH]c3c2CN(C(=O)O[C@H](CN(C)C)c2ccccc2)C3(C)C)c2sccc2n1` [Example 73, (1S)-2-(dimethylamino)-1-phenylethyl 6,6-dimethyl-3-[(2-methylthieno[3,2-d]pyrimidin-4-yl)amino]-4,6-dihydropyrrolo[3,4-c]pyrazole-5(1H)-carboxylate] showed a pKi in assay [1] (setting [3]) of 8.80. In assay [2], this compound gave a pEC50 of more than 8.41.

Take `CN(C)C[C@@H](NC(=O)N1Cc2c(Nc3ncnc4sccc34)n[nH]c2C1(C)C)c1ccccc1` [Example 61, N-[(1S)-2-(dimethylamino)-1-phenylethyl]-6,6-dimethyl-3-(thieno[2,3-d]pyrimidin-4-ylamino)-4,6-dihydropyrrolo[3,4-c]pyrazole-5(1H)-carboxamide]: in assay [1] (setting [3]), the pKi was 7.66. The pEC50 in assay [2] is 7.72.

`Cc1nc(Nc2n[nH]c3c2CN(C(=O)N[C@H](CN(C)C)c2ccccc2)C3(C)C)c2ccsc2n1` [Example 58, N-[(1S)-2-(dimethylamino)-1-phenylethyl]-6,6-dimethyl-3-[(2-methylthieno[2,3-d]pyrimidin-4-yl)amino]-4,6-dihydropyrrolo[3,4-c]pyrazole-5(1H)-carboxamide] showed a pKi in assay [1] of 7.85. In assay [2], this compound gave a pEC50 of 8.60.
